According to ChEMBL document CHEMBL1201862, “PubChem BioAssay data set” (2004):
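These data come from cells grown in 96-well plates and exposed to compound for 48 hours at five concentrations. Here, GI50 denotes the concentration required for 50% inhibition of growth.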 The source made the active and inactive calls. Cut-off read from the data, not from the text of the source: active = GI50 up to about 1.1 µM and inactive = higher.

What was measured:
Test in all cases: NCI tumour cell line growth inhibition, 48 h
786-0 = test system: 786-0
A498 = test system: A498
DU-145 = test system: DU-145
EKVX = test system: EKVX
HCT-15 = test system: HCT-15
HT-29 = test system: HT-29
Hs-578T = test system: Hs-578T
IGROV-1 = test system: IGROV-1
K562 = test system: K562
M14 = test system: M14
Malme-3M = test system: Malme-3M
NCI/ADR-RES = test system: NCI/ADR-RES
OVCAR-5 = test system: OVCAR-5
RPMI-8226 = test system: RPMI-8226
SF-268 = test system: SF-268
SK-OV-3 = test system: SK-OV-3
SNB-19 = test system: SNB-19
SNB-75 = test system: SNB-75
T47D = test system: T47D

| SMILES | GI50 (786-0) | GI50 (A498) | GI50 (DU-145) | GI50 (EKVX) | GI50 (HCT-15) | GI50 (HT-29) | GI50 (Hs-578T) | GI50 (IGROV-1) | GI50 (K562) | GI50 (M14) | GI50 (Malme-3M) | GI50 (NCI/ADR-RES) | GI50 (OVCAR-5) | GI50 (RPMI-8226) | GI50 (SF-268) | GI50 (SK-OV-3) | GI50 (SNB-19) | GI50 (SNB-75) | GI50 (T47D) |
| --- | --- | --- | --- | --- | --- | --- | --- | --- | --- | --- | --- | --- | --- | --- | --- | --- | --- | --- | --- |
| O=C(Nc1ccc([As](=O)(O)O)cc1)Nc1cccc(Cl)c1Cl | 46.1 µM (inactive) | > 100 µM (inactive) | > 100 µM (inactive) | 79.8 µM (inactive) | > 100 µM | > 100 µM (inactive) | 20.5 µM (inactive) | > 100 µM (inactive) | 97.5 µM (inactive) | > 100 µM (inactive) | > 100 µM (inactive) | > 100 µM (inactive) | > 100 µM (inactive) | > 100 µM (inactive) | 45.7 µM (inactive) | > 100 µM (inactive) | 86.1 µM (inactive) | 21.7 µM (inactive) | – |
| CCOC(=O)C1=C(O)C(=O)c2ccccc2C1=O | > 100 µM (inactive) | > 100 µM (inactive) | – | > 100 µM (inactive) | > 100 µM | > 100 µM (inactive) | – | > 100 µM (inactive) | > 100 µM (inactive) | > 100 µM (inactive) | 50.6 µM (inactive) | – | > 100 µM (inactive) | > 100 µM (inactive) | > 100 µM (inactive) | > 100 µM (inactive) | 40.9 µM (inactive) | > 100 µM (inactive) | – |
| CCOC(=O)/C(C#N)=C(/NNc1ccccc1)c1ccncc1C(=O)O | > 100 µM (inactive) | > 100 µM (inactive) | > 42.7 µM (inactive) | > 100 µM (inactive) | > 22.7 µM | > 63.5 µM (inactive) | > 100 µM (inactive) | > 100 µM (inactive) | 3.28 µM (inactive) | 5.66 µM (inactive) | > 100 µM (inactive) | – | > 72.1 µM (inactive) | > 56.8 µM (inactive) | > 100 µM (inactive) | > 100 µM (inactive) | > 100 µM (inactive) | > 100 µM (inactive) | 8.17 µM (inactive) |
| COC(=O)[C@@H]1C[C@@H]2c3ccccc3N(S(=O)(=O)c3ccccc3)[C@@H]2N1C(=O)OC | > 100 µM (inactive) | – | 35.2 µM (inactive) | > 100 µM (inactive) | > 100 µM | > 100 µM (inactive) | > 100 µM (inactive) | > 100 µM (inactive) | > 100 µM (inactive) | – | > 100 µM (inactive) | > 100 µM (inactive) | 44 µM (inactive) | > 100 µM (inactive) | > 100 µM (inactive) | > 100 µM (inactive) | > 100 µM (inactive) | > 100 µM (inactive) | – |
| O=C(NNC(=S)Nc1cccc(Cl)c1)c1cc(-c2ccccc2)nc2ccccc12 | 17.1 µM (inactive) | – | 15.6 µM (inactive) | – | 14.6 µM | 20.4 µM (inactive) | 19.6 µM (inactive) | 18.7 µM (inactive) | 20.7 µM (inactive) | 17.5 µM (inactive) | 15.4 µM (inactive) | 20.4 µM (inactive) | 15.4 µM (inactive) | 6.68 µM (inactive) | 17 µM (inactive) | 19.9 µM (inactive) | 17 µM (inactive) | 23.8 µM (inactive) | 14.9 µM (inactive) |
| CCc1n[nH]c(=O)n1NC(=O)c1ccccc1C(=O)O | > 100 µM (inactive) | – | > 100 µM (inactive) | > 100 µM (inactive) | > 100 µM | > 100 µM (inactive) | – | > 100 µM (inactive) | > 100 µM (inactive) | > 100 µM (inactive) | – | > 100 µM (inactive) | > 100 µM (inactive) | > 100 µM (inactive) | > 100 µM (inactive) | > 100 µM (inactive) | > 100 µM (inactive) | > 100 µM (inactive) | – |
| CC(C)(C)OC/C=C(/CO)[C@@H]1C=C[C@H](O)C1 | > 100 µM (inactive) | > 100 µM (inactive) | – | > 100 µM (inactive) | > 100 µM | > 100 µM (inactive) | – | – | > 100 µM (inactive) | > 100 µM (inactive) | > 100 µM (inactive) | > 100 µM (inactive) | > 100 µM (inactive) | > 100 µM (inactive) | > 100 µM (inactive) | > 100 µM (inactive) | > 100 µM (inactive) | > 100 µM (inactive) | > 100 µM (inactive) |
| CC(C)CCNC(=O)c1ccc(CNC(=O)/C=C/c2ccc(-c3ccccc3[N+](=O)[O-])o2)cc1 | 28.6 µM (inactive) | – | 64.9 µM (inactive) | – | > 100 µM | – | – | – | 82.6 µM (inactive) | > 100 µM (inactive) | – | 28.2 µM (inactive) | 81.8 µM (inactive) | 96.8 µM (inactive) | 18.6 µM (inactive) | > 100 µM (inactive) | 22.7 µM (inactive) | 25 µM (inactive) | 12.2 µM (inactive) |
| O=C(OC1C#CCSCC#C/C=C\1)c1cnc2ccccc2n1 (stereo not given) | 0.461 µM (active) | 40 µM (inactive) | > 100 µM (inactive) | > 100 µM (inactive) | > 100 µM | > 100 µM (inactive) | 29.8 µM (inactive) | > 100 µM (inactive) | 19.7 µM (inactive) | > 100 µM (inactive) | > 100 µM (inactive) | 0.805 µM (active) | > 100 µM (inactive) | – | > 100 µM (inactive) | > 100 µM (inactive) | > 100 µM (inactive) | > 100 µM (inactive) | – |
| CC1C(c2ccccc2)O[B-](F)(c2ccccc2)[NH+]1C (stereo not given) | > 100 µM (inactive) | > 100 µM (inactive) | > 100 µM (inactive) | > 100 µM (inactive) | > 100 µM | > 100 µM (inactive) | – | > 100 µM (inactive) | > 100 µM (inactive) | > 100 µM (inactive) | > 100 µM (inactive) | > 100 µM (inactive) | > 100 µM (inactive) | > 100 µM (inactive) | > 100 µM (inactive) | > 100 µM (inactive) | > 100 µM (inactive) | 37.2 µM (inactive) | > 100 µM (inactive) |
| C=C1C(=O)[C@@]23CC[C@H]4[C@@](C)(CCC[C@@]4(C)C(=O)OC)[C@@H]2CC[C@]1(O)C3 | – | 1.71 µM (inactive) | – | 2.06 µM (inactive) | 1.26 µM | 1.27 µM (inactive) | – | 1.63 µM (inactive) | 0.604 µM (active) | – | – | 1.37 µM (inactive) | 2.02 µM (inactive) | 0.286 µM (active) | 1.9 µM (inactive) | 19.2 µM (inactive) | 13 µM (inactive) | 2.37 µM (inactive) | – |
| Nc1nc(N)c2cc(S(=O)(=O)c3ccc4ccccc4c3)ccc2n1 | 3.66 µM (inactive) | – | – | 8.13 µM (inactive) | 3.93 µM | – | 8.39 µM (inactive) | 1.5 µM (inactive) | 0.541 µM (active) | – | 14.4 µM (inactive) | 70.5 µM (inactive) | > 100 µM (inactive) | > 100 µM (inactive) | 5.22 µM (inactive) | > 100 µM (inactive) | 6.03 µM (inactive) | 2.86 µM (inactive) | 1.46 µM (inactive) |
| O=C1Cc2c([nH]c3ccc(Br)cc23)-c2cc(Br)ccc2N1 | > 100 µM (inactive) | > 100 µM (inactive) | > 100 µM (inactive) | > 100 µM (inactive) | > 100 µM | – | – | – | > 100 µM (inactive) | > 100 µM (inactive) | – | > 100 µM (inactive) | > 100 µM (inactive) | > 100 µM (inactive) | > 100 µM (inactive) | > 100 µM (inactive) | > 100 µM (inactive) | – | > 100 µM (inactive) |
